Test results taken from patent US20240208954A1, “OXADIAZOLE COMPOUND, PREPARATION METHOD THEREFOR, PHARMACEUTICAL COMPOSITION AND USE THEREOF” (SHANGHAI INSTITUTE OF MATERIA MEDICA, CHINESE ACADEMY OF …, priority 2020, published 2024).
Read-outs that look alike come from different tables or passages of the source.

How the values were obtained:
S1PR1 = biological target: T1, S1PR1 (Homo sapiens, UniProt P21453); test: Agonistic activity test on S1P receptors, FLIPR, CHO-K1/Ga15/EDG1 cells; type: cell-based; conditions: CHO-K1/Ga15/EDG1 cells, FLIPR agonist mode, read-out: S1PR1 EC50
T1 construct: host or cells: CHO-K1 co-expressing Ga15
Description: (§1) Instrument: FLIPR™ TETRA (Molecular Device)
Experimental materials: CHO-K1/Ga15/EDG1 cells constructed by GenScript autonomously.
(§2) Sample processing: Before the experiment, the working solution with the corresponding concentration was prepared by diluting with GPCR dilution buffer.
(§3) After 18-20 hours, the cell culture plat was taken out and added with dye working solution, and then the plate was placed in a 37° C./5% CO2 incubator for 1 hour, and finally equilibrated at room temperature for 15 minutes. Positive agonist working solution was added, and RFU values were detected and recorded. […] The positive agonist working fluid was added to the cell culture plate at the 21st second. […] The antagonistic mode detection program, the overall detection time of the instrument was 120 seconds, and positive antagonist working solution was added to the cell culture plate at the 21st second.
(§4) Data processing: Raw data were obtained via ScreenWorks (version 3.1) and saved as *FMD files on the Kingsray computer network system. Data were collected and analyzed using Excel and GraphPad Prism 6 software programs. For each well, the average fluorescence intensity value from 1 to 20 seconds was used as the baseline, and the maximum fluorescence intensity value from 21 to 120 seconds minus the minimum fluorescence intensity value from 21 to 120 seconds was the relative fluorescence intensity value (ARFU), from which the percentage activation or inhibition can be calculated based on the following equation.
(§5) % Activation Rate=(ΔRFUCompound-ΔRFUBackground)/(ΔRFUAgonist control-ΔRFUBackground)×100%
(§6) The data was analyzed using GraphPad Prism 6 with a four-parameter equation to calculate the EC50 and IC50 values. The four-parameter equation was as follows: y=Bottom+(Top-Bottom)/(1+10^((LogEC50/IC50-X)*HillSlope)), wherein X is the Log value of the concentration and Y was the inhibition rate.

S1PR3 = S1PR3 (Homo sapiens, UniProt Q99500); test: Agonistic activity test on S1P receptors, FLIPR; type: cell-based; conditions: FLIPR agonist mode; read-out: S1PR3 EC50
Description: as §1, §2, §3, §4, §5, §6

T1 sequence (P21453 whole entry): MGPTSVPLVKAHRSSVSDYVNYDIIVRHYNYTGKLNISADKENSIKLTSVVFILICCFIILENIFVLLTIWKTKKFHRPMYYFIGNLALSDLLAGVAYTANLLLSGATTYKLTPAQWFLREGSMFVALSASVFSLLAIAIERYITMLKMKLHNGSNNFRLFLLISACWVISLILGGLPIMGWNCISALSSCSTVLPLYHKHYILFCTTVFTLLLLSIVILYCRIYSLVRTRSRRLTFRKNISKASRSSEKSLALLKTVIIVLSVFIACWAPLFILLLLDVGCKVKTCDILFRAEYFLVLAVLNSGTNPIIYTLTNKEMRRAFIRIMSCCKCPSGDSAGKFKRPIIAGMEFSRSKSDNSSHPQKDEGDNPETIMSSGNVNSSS
Sequence of S1PR3 (Q99500 whole entry, species assumed): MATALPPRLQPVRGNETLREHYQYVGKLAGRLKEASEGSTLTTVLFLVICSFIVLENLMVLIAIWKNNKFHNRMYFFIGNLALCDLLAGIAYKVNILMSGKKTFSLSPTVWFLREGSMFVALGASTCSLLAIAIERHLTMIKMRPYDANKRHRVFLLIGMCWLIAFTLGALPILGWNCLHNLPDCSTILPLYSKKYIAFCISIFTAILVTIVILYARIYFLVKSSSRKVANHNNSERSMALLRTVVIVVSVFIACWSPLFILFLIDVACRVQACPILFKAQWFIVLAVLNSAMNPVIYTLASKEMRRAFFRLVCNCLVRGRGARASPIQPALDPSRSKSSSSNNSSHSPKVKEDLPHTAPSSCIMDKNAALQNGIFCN

| SMILES | EC50 (S1PR1) | EC50 (S1PR3) | EC50 (S1PR1; cells printed in μM) |
| --- | --- | --- | --- |
| CC(C)Oc1ccc(-c2nc(-c3ccc(CN4CC(C(=O)O)C4)c4ccccc34)no2)cc1Cl [Compound A10, 1-((4-(5-(3-chloro-4-isopropoxyphenyl)-1,2,4-oxadiazol-3-yl)naphthalen-1-yl)methyl) azetidine-3-carboxylic acid hydrochloric acid] | 0.699 µM | > 10000 nM | – |
| CC(C)Oc1ccc(-c2nc(-c3ccc(CN4CC(C(=O)O)C4)c4ccccc34)no2)cc1Br [Compound A11, 1-((4-(5-(3-bromo-4-isopropoxyphenyl)-1,2,4-oxadiazol-3-yl)naphthalen-1-yl)methyl) azetidine-3-carboxylic acid hydrochloric acid] | 1.37 µM | > 10000 nM | – |
| CC(C)Oc1ccc(-c2nc(-c3ccc(CN4CC(C(=O)O)C4)c4ccccc34)no2)cc1C(F)(F)F [Compound A12, 1-((4-(5-(4-isopropoxy-3-(trifluoromethyl)phenyl)-1,2,4-oxadiazol-3-yl)naphthalen-1-yl)methyl) azetidine-3-carboxylic acid hydrochloric acid] | 0.358 µM | > 10000 nM | – |
| COc1cc(-c2nc(-c3ccc(CN4CC(C(=O)O)C4)c4ccccc34)no2)ccc1OC(C)C [Compound A13, 1-((4-(5-(4-isopropoxy-3-methoxyphenyl)-1,2,4-oxadiazol-3-yl)naphthalen-1-yl)methyl) azetidine-3-carboxylic acid hydrochloric acid] | 1.55 µM | > 10000 nM | – |
| CC(C)Oc1ccc(-c2nc(-c3ccc(CN4CC(C(=O)O)C4)c4ccccc34)no2)cc1 [Compound A14, 1-((4-(5-(4-isopropoxyphenyl)-1,2,4-oxadiazol-3-yl)naphthalen-1-yl)methyl) azetidine-3-carboxylic acid hydrochloric acid] | 1.67 µM | > 10000 nM | – |
| CC(C)(C)Oc1ccc(-c2nc(-c3ccc(CN4CC(C(=O)O)C4)c4ccccc34)no2)cc1 [Compound A15, 1-((4-(5-(4-(tert-butoxy)phenyl)-1,2,4-oxadiazol-3-yl)naphthalen-1-yl)methyl) azetidine-3-carboxylic acid hydrochloric acid] | 1.23 µM | > 10000 nM | – |
| COc1ccc(-c2nc(-c3ccc(CN4CC(C(=O)O)C4)c4ccccc34)no2)cc1 [Compound A16, 1-((4-(5-(4-methoxyphenyl)-1,2,4-oxadiazol-3-yl)naphthalen-1-yl)methyl) azetidine-3-carboxylic acid hydrochloric acid] | 1.17 µM | > 10000 nM | – |
| CCCOc1ccc(-c2nc(-c3ccc(CN4CC(C(=O)O)C4)c4ccccc34)no2)cc1 [Compound A17, 1-((4-(5-(4-propoxyphenyl)-1,2,4-oxadiazol-3-yl)naphthalen-1-yl)methyl) azetidine-3-carboxylic acid hydrochloric acid] | – | > 10000 nM | > 10 µM |
| O=C(O)C1CN(Cc2ccc(-c3noc(-c4ccc(OCc5ccccc5)cc4)n3)c3ccccc23)C1 [Compound A18, 1-((4-(5-(4-(benzyloxy)phenyl)-1,2,4-oxadiazol-3-yl)naphthalen-1-yl)methyl) azetidine-3-carboxylic acid hydrochloric acid] | – | > 10000 nM | > 10 µM |
| O=C(O)C1CN(Cc2ccc(-c3noc(-c4ccc(OC(F)(F)F)cc4)n3)c3ccccc23)C1 [Compound A19, 1-((4-(5-(4-(trifluoromethoxy)phenyl)-1,2,4-oxadiazol-3-yl)naphthalen-1-yl)methyl) azetidine-3-carboxylic acid hydrochloric acid] | 1.13 µM | > 10000 nM | – |
| CC(C)c1ccc(-c2nc(-c3ccc(CN4CC(C(=O)O)C4)c4ccccc34)no2)cc1 [Compound A20, 1-((4-(5-(4-isopropylphenyl)-1,2,4-oxadiazol-3-yl)naphthalen-1-yl)methyl) azetidine-3-carboxylic acid hydrochloric acid] | 1.05 µM | > 10000 nM | – |
| CCCc1ccc(-c2nc(-c3ccc(CN4CC(C(=O)O)C4)c4ccccc34)no2)cc1 [Compound A21, 1-((4-(5-(4-propylphenyl)-1,2,4-oxadiazol-3-yl)naphthalen-1-yl)methyl) azetidine-3-carboxylic acid hydrochloric acid] | 1.27 µM | > 10000 nM | – |
| N#Cc1ccc(-c2nc(-c3ccc(CN4CC(C(=O)O)C4)c4ccccc34)no2)cc1 [Compound A22, 1-((4-(5-(4-cyanophenyl)-1,2,4-oxadiazol-3-yl)naphthalen-1-yl)methyl) azetidine-3-carboxylic acid hydrochloric acid] | 1.13 µM | > 10000 nM | – |
| O=C(O)C1CN(Cc2ccc(-c3noc(-c4ccc(F)cc4)n3)c3ccccc23)C1 [Compound A23, 1-((4-(5-(4-fluorophenyl)-1,2,4-oxadiazol-3-yl)naphthalen-1-yl)methyl) azetidine-3-carboxylic acid hydrochloric acid] | 1.96 µM | > 10000 nM | – |
| N#Cc1cccc(-c2nc(-c3ccc(CN4CC(C(=O)O)C4)c4ccccc34)no2)c1 [Compound A24, 1-((4-(5-(3-cyanophenyl)-1,2,4-oxadiazol-3-yl)naphthalen-1-yl)methyl) azetidine-3-carboxylic acid hydrochloric acid] | 0.685 µM | > 10000 nM | – |
| O=C(O)C1CN(Cc2ccc(-c3noc(-c4cccc(F)c4)n3)c3ccccc23)C1 [Compound A25, 1-((4-(5-(3-fluorophenyl)-1,2,4-oxadiazol-3-yl)naphthalen-1-yl)methyl) azetidine-3-carboxylic acid hydrochloric acid] | 1.06 µM | > 10000 nM | – |
| O=C(O)C1CN(Cc2ccc(-c3noc(-c4ccccc4)n3)c3ccccc23)C1 [Compound A26, 1-((4-(5-phenyl-1,2,4-oxadiazol-3-yl)naphthalen-1-yl)methyl) azetidine-3-carboxylic acid hydrochloric acid] | 0.749 µM | > 10000 nM | – |
| O=C(O)C1CN(Cc2ccc(-c3noc(-c4ccncc4)n3)c3ccccc23)C1 [Compound A27, 1-((4-(5-(pyridin-4-yl)-1,2,4-oxadiazol-3-yl)naphthalen-1-yl)methyl) azetidine-3-carboxylic acid hydrochloric acid] | – | > 10000 nM | > 10 µM |
| O=C(O)C1CN(Cc2ccc(-c3noc(-c4cccnc4)n3)c3ccccc23)C1 [Compound A28, 1-((4-(5-(pyridin-3-yl)-1,2,4-oxadiazol-3-yl)naphthalen-1-yl)methyl) azetidine-3-carboxylic acid hydrochloric acid] | 1.18 µM | > 10000 nM | – |
| O=C(O)C1CN(Cc2ccc(-c3noc(-c4ccccn4)n3)c3ccccc23)C1 [Compound A29, 1-((4-(5-(pyridin-2-yl)-1,2,4-oxadiazol-3-yl)naphthalen-1-yl)methyl) azetidine-3-carboxylic acid hydrochloric acid] | 0.993 µM | > 10000 nM | – |
| O=C(O)C1CN(Cc2ccc(-c3noc(-c4ccc5c(c4)OCO5)n3)c3ccccc23)C1 [Compound A31] | 1.3 µM | > 10000 nM | – |
| O=C(O)C1CN(Cc2ccc(-c3noc(-c4ccc5c(c4)OCCO5)n3)c3ccccc23)C1 [Compound A32, 1-((4-(5-(2,3-dihydrobenzo[b][1,4]dioxin-6-yl)-1,2,4-oxadiazol-3-yl)naphthalen-1-yl)methyl) azetidine-3-carboxylic acid hydrochloric acid] | 0.617 µM | > 10000 nM | – |
| O=C(O)C1CN(Cc2ccc(-c3noc(-c4cnc5ccccc5c4)n3)c3ccccc23)C1 [Compound A33, 1-((4-(5-(quinolin-3-yl)-1,2,4-oxadiazol-3-yl)naphthalen-1-yl)methyl) azetidine-3-carboxylic acid hydrochloric acid] | 0.933 µM | > 10000 nM | – |
| O=C(O)C1CN(Cc2ccc(-c3noc(-c4cnc5ccccc5n4)n3)c3ccccc23)C1 [Compound A34, 1-((4-(5-(quinoxaline-2-yl)-1,2,4-oxadiazol-3-yl)naphthalen-1-yl)methyl) azetidine-3-carboxylic acid hydrochloric acid] | 0.739 µM | > 10000 nM | – |
| O=C(O)C1CN(Cc2ccc(-c3noc(-c4ccc5[nH]ccc5c4)n3)c3ccccc23)C1 [Compound A35, 1-((4-(5-(1H-indole-5-yl)-1,2,4-oxadiazol-3-yl)naphthalen-1-yl)methyl) azetidine-3-carboxylic acid hydrochloric acid] | 1.96 µM | > 10000 nM | – |
| O=C(O)C1CN(Cc2ccc(-c3noc(-c4cc5ccccc5[nH]4)n3)c3ccccc23)C1 [Compound A36, 1-((4-(5-(1H-indole-2-yl)-1,2,4-oxadiazol-3-yl)naphthalen-1-yl)methyl) azetidine-3-carboxylic acid hydrochloric acid] | 1.11 µM | > 10000 nM | – |
